Data published in patent US10993985B2, “Methods of treating acute myeloid leukemia” (BioLineRx Ltd., priority 2016, dated 2021).
Positions of bridges follow the written chain, without caps; N, C: chain ends. Non-standard residues stand in square brackets, D forms with d. 2Nal = N[C@@H](Cc1ccc2ccccc2c1)C(=O)O; Cit = NC(=O)NCCC[C@H](N)C(=O)O

Tests used:
[1] = system: blast cells in peripheral blood (PB) of AML patients; assay: Phase 1/2 study: mobilization of blast cells to peripheral blood after BL-8040 in relapsed or refractory AML patients; assay type: in vivo, human
Method: In an open-label, single arm, phase 1/2 study, patients diagnosed with AML with relapsed or refractory disease received a once daily subcutaneous (SC) dose of BL-8040 as monotherapy on days 1-2 followed by the same dose of BL-8040 plus Ara-C (1.5 g/m2 for patients ≥60; 3 g/m2 for patients <60) on days 3-7. Six dose levels of BL-8040 (0.5-2.0 mg/kg) were tested in the dose escalation phase with 1.5 mg/kg selected for the expansion phase. Extensive pharmacodynamics (PD) parameters such as the extent of mobilization were assessed during the study. Clinical response to treatment was determined by BM biopsy on day 30.
Measuring Blast-Cell Density in Peripheral Blood (PB) and Bone Marrow (BM)
Bone marrow blast-cell counts were performed using procedures essentially as described by Lee et al. (Int. Jnl. Lab. Hem. 30: 349-364, 2008).
Peripheral blast-cell counts were performed using procedures essentially as described by O'Connor, B. H., A Color Atlas and Instructions Manual of Peripheral Cell Morphology, Lippincot Williams, 1984.
Clinical responses to […] treatment were determined according to the standards of the international working group for AML (Cheson et al., J. Clin. Oncol. 21: 4642-4649, 2003; Döhner et al., Blood 115: 453-474, 2010; and de Greef et al., British Journal of Hematology 128: 184-91, 2005), which are summarized in Table 1 below.

human AML xenografts = settings: subcutaneous injections; cited from earlier work
[2] = system: malignant cells of hematopoietic origin including AML; settings: cited from earlier work
HIV-1 (X4-HIV-1) = settings: through specific binding to CXCR4; cited from earlier work

Row | Substance | ratio of PB blast cell density after treatment to initial density prior to treatment ([1]; day 2 following treatment with BL-8040, non-responsive patients (SD and PD)) | ratio of PB blast cell density after treatment to initial density prior to treatment ([1]; day 2 following treatment with BL-8040, responsive patients, CR, prior to cytarabine) [fold] | ratio of PB blast cell density after treatment to initial density prior to treatment ([1]; day 2 following treatment with BL-8040, responsive patients, CRi, prior to cytarabine) [fold] | ratio of PB blast cell density after treatment to initial density prior to treatment ([1]; day 3, 8 hr following day 3 injection (after initiation of cytarabine), non-responsive patients (SD and PD)) | ratio of PB blast cell density after treatment to initial density prior to treatment ([1]; day 3, 8 hr following day 3 injection (after initiation of cytarabine), responsive patients, CR) [fold] | ratio of PB blast cell density after treatment to initial density prior to treatment ([1]; day 3, 8 hr following day 3 injection (after initiation of cytarabine), responsive patients, CRi) [fold] | ratio of PB blast cell density after treatment to initial density prior to treatment ([1]; day 3 following initial treatment with BL-8040, non-responsive patients (SD and PD)) | ratio of PB blast cell density after treatment to initial density prior to treatment ([1]; day 3 following initial treatment with BL-8040, responsive patients, CR, prior to cytarabine) [fold] | ratio of PB blast cell density after treatment to initial density prior to treatment ([1]; day 3 following initial treatment with BL-8040, responsive patients, CRi, prior to cytarabine) [fold] | increase of PB blast-cell density versus baseline ([1]; non-responsive patients, after 2 or 3 days following first administration of BL-8040) | increase of PB blast-cell density versus baseline ([1]; responsive patients (CR, CRi or CRp), after 2 days following first administration of BL-8040) [fold] | increase of PB blast-cell density versus baseline ([1]; responsive patients (CR, CRi or CRp), after 3 days following first administration of BL-8040) [fold] | growth of human AML xenografts (human AML xenografts) | cytotoxicity toward malignant cells of hematopoietic origin including AML [2] | HIV-1 (X4-HIV-1) entry to T cells (HIV-1 (X4-HIV-1))
1 | 4F-benzoyl-Arg-Arg-Nal-Cys-Tyr-Cit-Lys-DLys-Pro-Tyr-Arg-Cit-Cys-Arg-NH2 [BL-8040] | no increase was observed | 2.1 | 4.0 | no significant increase was observed | 7.0 | 4.2 | no significant increase was observed | 2.1 | 2.9 | did not increase | 3.7 | 3.8 | significantly reduced | CXCR4-dependent preferential cytotoxicity | 
2 | H-Arg-Arg-Nal-Cys-Tyr-Arg-Lys-DLys-Pro-Tyr-Arg-Cit-Cys-Arg-OH (H-RR[2Nal]CYRK[dK]PYR[Cit]CR-OH; disulfide 4-13) [Analog T-140] |  |  |  |  |  |  |  |  |  |  |  |  |  |  | suppress
